Test results published in US7234365B2, “Methods and systems for dissolution testing” (Symyx Technologies, Inc., priority 2003, dated 2007).

Assays:
[1] = High throughput dissolution screening of Aspirin; assay type: physicochemical; settings: 10 mg powdered Aspirin in 10 ml deionized water, shaker, UV detector, 37 second sampling frequency for 30 minutes, FIG. 7
Procedure: A 10 mg of powdered Aspirin standard from Aldrich was weighted into a 20 ml scintillation vial and put on a shaker at a robot platform. The shaker was then turned on and an automated dispensing unit with a 10 ml syringe dispensed 10 ml of deionized water into the 20 ml scintillation vial containing the 10 mg of Aspirin thereby initiating dissolution of the 10 mg of Aspirin into the 10 ml of deionized water to form, over time, a solution having an increasing concentration of aspirin.
Thereafter, an automated sampling unit aspirated approximately 300 μL of the solution (the sample itself never enters the syringe) through an in-line filter allowing a sampled aliquot of the filtered solution to enter a switching valve and fill a 20 μL sample loop connected to the ports of the switching valve. Once the 20 μL sample loop was filled with a portion of the aliquot, the switching valve was switched to a second position by automation, causing the sub-aliquot contained in the 20 μL sample loop to be discharged into an analytical unit. The analytical unit comprised a syringe pump and an UV detector, for determining concentration. At this point, the automated sampling unit returned the remainder portion of the filtered aliquot back through the filter and back into the solution contained in the scintillation vial. […]

[2] = addition of viscogens such as glycerol or Ficoll; cited from earlier work

Row | time to reach maximum dissolution [1] | Compound | photo stability [2]
1 | less than 10 minutes | CC(=O)Oc1ccccc1C(=O)O [Aspirin] | –
2 | – | Vitamin-B12 | increase in photo stability
